From patent US5583115A, “Dialkyltiacumicin compounds” (Abbott Laboratories, priority 1995, dated 1996)
Values after ≈ are worked out from the molar mass of the structure shown.

How the values were obtained:
Providencia stuartii = assay: MIC agar dilution, aerobic and facultative bacteria; conditions: Culture # 1831
P. anaerobius = assay: MIC agar dilution, anaerobic bacteria; assay type: cell-based; conditions: Culture # 1780
Pseudomonas aeruginosa = assay: MIC agar dilution, aerobic and facultative bacteria
P. species = assay: MIC agar dilution, anaerobic bacteria; assay type: cell-based; conditions: Culture # 1776
B. loescheii = assay: MIC agar dilution, anaerobic bacteria; assay type: cell-based; conditions: Culture # 1767
Clostridium perfringens = assay: microbe, parasite or virus in culture; assay type: cell-based
C. ramosum = assay: MIC agar dilution, anaerobic bacteria; assay type: cell-based; conditions: Culture # 2482
Veillonella parvula = assay: MIC agar dilution, anaerobic bacteria; assay type: cell-based; conditions: Culture # 2479
B. disiens = assay: MIC agar dilution, anaerobic bacteria; assay type: cell-based; conditions: Culture # 1763
Propionibacterium acnes = assay: MIC agar dilution, anaerobic bacteria; assay type: cell-based; conditions: Culture # 1775
B. vulgatus = assay: MIC agar dilution, anaerobic bacteria; assay type: cell-based
S. epidermidis = assay: MIC agar dilution, aerobic and facultative bacteria; conditions: Culture # 1666
Klebsiella pneumoniae = assay: as above; conditions: Culture # 2518
Enterococcus faecium = assay: as above; conditions: Culture # 1668
B. bivius = assay: MIC agar dilution, anaerobic bacteria; assay type: cell-based; conditions: Culture # 2483
Nocardia asteroides = assay: MIC agar dilution, aerobic and facultative bacteria; conditions: Culture # 5173
Candida albicans = assay: as above; conditions: Culture # 3622
[1] = test system: Peptostreptococcus asaccharolyticus; assay: MIC agar dilution, anaerobic bacteria; assay type: cell-based; conditions: Culture # 1777
P. magnus = assay: MIC agar dilution, anaerobic bacteria; assay type: cell-based; conditions: Culture # 1778
Fusobacterium nucleatum = assay: MIC agar dilution, anaerobic bacteria; assay type: cell-based; conditions: Culture # 2478
Streptococcus bovis = assay: MIC agar dilution, aerobic and facultative bacteria; conditions: Culture # 1699
Staphylococcus aureus = assay: as above
Bacteriodes fragilis = assay: MIC agar dilution, anaerobic bacteria; assay type: cell-based
Mycobacterium smegmatis = assay: MIC agar dilution, aerobic and facultative bacteria; conditions: Culture # 5171
B. thetaiotaomicron = assay: MIC agar dilution, anaerobic bacteria; assay type: cell-based
E. coli = assay: MIC agar dilution, aerobic and facultative bacteria; assay type: cell-based
C. difficile = assay: MIC agar dilution, anaerobic bacteria; assay type: cell-based
Fusobacterium species = assay: MIC agar dilution, anaerobic bacteria; assay type: cell-based; conditions: Culture # 1770
Micrococcus luteus = assay: MIC agar dilution, aerobic and facultative bacteria
[2] = test system: Acinetobacter calcoaceticus; assay: as above; conditions: Culture # 1845
Streptococcus agalactiae = assay: as above; conditions: Culture # 1670
P. cepacia = assay: as above; conditions: Culture # 1684
Enterobacter aerogenes = assay: as above; conditions: Culture # 1677
S. pyogenes = assay: as above

## CCc1c(Cl)c(O)c(Cl)c(O)c1C(=O)O[C@H]1[C@H](O)[C@H](OC)[C@H](OC/C2=C\C=C\C[C@H](O)/C(C)=C/[C@H](CC)[C@@H](O[C@@H]3OC(C)(C)[C@@H](OC(=O)C(C)C)[C@H](O)[C@@H]3O)/C(C)=C/C(C)=C/C[C@@H]([C@@H](C)O)OC2=O)O[C@@H]1C [Tiacumicin B, tiacumicin B]
Providencia stuartii
  MIC: > 100 µg/mL
P. anaerobius
  MIC: 0.008 µg/mL (≈ 0.00756 µM)
Pseudomonas aeruginosa; Culture # 1679
  MIC: > 100 µg/mL
Pseudomonas aeruginosa; Culture # 1680
  MIC: > 100 µg/mL
Pseudomonas aeruginosa; Culture # 1681
  MIC: > 100 µg/mL
Pseudomonas aeruginosa; Culture # 1682
  MIC: 12.5 µg/mL (≈ 11.8 µM)
Pseudomonas aeruginosa; cipro R, Culture # 1919
  MIC: > 100 µg/mL
Pseudomonas aeruginosa; cipro R, Culture # 1920
  MIC: > 100 µg/mL
P. species
  MIC: 32 µg/mL (≈ 30.2 µM)
B. loescheii
  MIC: 64 µg/mL (≈ 60.5 µM)
Clostridium perfringens; Culture # 1771
  MIC: 0.008 µg/mL (≈ 0.00756 µM)
Clostridium perfringens; Culture # 1772
  MIC: 0.03 µg/mL (≈ 0.0284 µM)
Clostridium perfringens; Culture # 1773
  MIC: 0.008 µg/mL (≈ 0.00756 µM)
C. ramosum
  MIC: > 128 µg/mL
Veillonella parvula
  MIC: 64 µg/mL (≈ 60.5 µM)
B. disiens
  MIC: 32 µg/mL (≈ 30.2 µM)
Propionibacterium acnes
  MIC: 4 µg/mL (≈ 3.78 µM)
B. vulgatus; Culture # 1762
  MIC: > 128 µg/mL
B. vulgatus; Culture # 2481
  MIC: > 128 µg/mL
S. epidermidis
  MIC: 3.1 µg/mL (≈ 2.93 µM)
Klebsiella pneumoniae
  MIC: > 100 µg/mL
Enterococcus faecium
  MIC: 6.2 µg/mL (≈ 5.86 µM)
B. bivius
  MIC: 128 µg/mL (≈ 121 µM)
Nocardia asteroides
  MIC: 0.39 µg/mL (≈ 0.369 µM)
Candida albicans
  MIC: > 100 µg/mL
[1]
  MIC: 1 µg/mL (≈ 0.945 µM)
P. magnus
  MIC: 0.5 µg/mL (≈ 0.473 µM)
Fusobacterium nucleatum
  MIC: > 128 µg/mL
Streptococcus bovis
  MIC: 25 µg/mL (≈ 23.6 µM)
Staphylococcus aureus; Culture # 1662, brain heart infusion agar, 37° C., 20 hours
  MIC: 6.2 µg/mL (≈ 5.86 µM)
Staphylococcus aureus; Culture # 1664
  MIC: 6.2 µg/mL (≈ 5.86 µM)
Staphylococcus aureus; Culture # 1690
  MIC: 12.5 µg/mL (≈ 11.8 µM)
Staphylococcus aureus; Culture # 2124
  MIC: 6.2 µg/mL (≈ 5.86 µM)
Staphylococcus aureus; Culture # 2130
  MIC: 12.5 µg/mL (≈ 11.8 µM)
Staphylococcus aureus; Culture # 2498
  MIC: 6.2 µg/mL (≈ 5.86 µM)
Staphylococcus aureus; cipro res., Culture # 3384
  MIC: 12.5 µg/mL (≈ 11.8 µM)
Bacteriodes fragilis; Culture # 1756, Wilkins-Chalgren agar, 37° C., 48 hours
  MIC: > 128 µg/mL
Bacteriodes fragilis; Culture # 1757
  MIC: > 128 µg/mL
Bacteriodes fragilis; Culture # 1758
  MIC: > 128 µg/mL
Bacteriodes fragilis; Culture # 1999
  MIC: > 128 µg/mL
Mycobacterium smegmatis
  MIC: 12.5 µg/mL (≈ 11.8 µM)
B. thetaiotaomicron; Culture # 1764
  MIC: > 128 µg/mL
B. thetaiotaomicron; Culture # 1765
  MIC: > 128 µg/mL
B. thetaiotaomicron; Culture # 1766
  MIC: > 128 µg/mL
E. coli; DC-2, Culture # 1674
  MIC: > 100 µg/mL
E. coli; H560, Culture # 1675
  MIC: > 100 µg/mL
E. coli; Juhl, Culture # 1673
  MIC: > 100 µg/mL
E. coli; KNK437, Culture # 1676
  MIC: > 100 µg/mL
E. coli; SS, Culture # 2489
  MIC: > 100 µg/mL
C. difficile; Culture # 1496
  MIC: 0.06 µg/mL (≈ 0.0567 µM)
C. difficile; Culture # 1497
  MIC: 0.06 µg/mL (≈ 0.0567 µM)
C. difficile; Culture # 1774
  MIC: 0.03 µg/mL (≈ 0.0284 µM)
C. difficile; Culture # 2025
  MIC: 0.06 µg/mL (≈ 0.0567 µM)
C. difficile; Culture # 2480
  MIC: 0.06 µg/mL (≈ 0.0567 µM)
C. difficile; Culture # 2528
  MIC: 0.06 µg/mL (≈ 0.0567 µM)
C. difficile; Culture # 2529
  MIC: 0.06 µg/mL (≈ 0.0567 µM)
Fusobacterium species
  MIC: > 128 µg/mL
Micrococcus luteus; Culture # 2493
  MIC: 0.1 µg/mL (≈ 0.0945 µM)
Micrococcus luteus; Culture # 2517
  MIC: 0.2 µg/mL (≈ 0.189 µM)
[2]
  MIC: > 100 µg/mL
Streptococcus agalactiae
  MIC: 12.5 µg/mL (≈ 11.8 µM)
P. cepacia
  MIC: > 100 µg/mL
Enterobacter aerogenes
  MIC: > 100 µg/mL
S. pyogenes; Culture # 1671
  MIC: 25 µg/mL (≈ 23.6 µM)
S. pyogenes; const., Culture # 1672
  MIC: 3.1 µg/mL (≈ 2.93 µM)
S. pyogenes; inducible, Culture # 2548
  MIC: 6.2 µg/mL (≈ 5.86 µM)
